Measured values from patent US20260028382A1, “IMMUNOGENIC PEPTIDES AND THEIR USES IN CANCER DIAGNOSIS AND THERAPY” (The Chinese University of Hong Kong, priority 2024, published 2026).

Test system: CD8+ T cells
Assay: IFN-γ ELISpot assay of peptide immunogenicity (peptide-pulsed DC:CD8+ T cell co-culture)
Assay type: cell-based, human
Description: We obtained peripheral mononuclear cells (PBMCs) from healthy donor buffy coat samples via density gradient centrifugation. We utilized QIAamp DNA Blood Kits (Qiagen) to isolate DNA for HLA typing with LinkSeq™ HLA-ABCDRDQDP+ 384 Kit (One Lambda) on a QuantStudio™ 7 Flex Real-Time PCR System. Human T and dendritic cells (DCs) were enriched from PBMCs using a CD8 cell isolation kit and Pan-DC enrichment kit (Miltenyi Biotec), respectively, and subsequently cultured in RPMI-1640 medium (Life Technologies) supplemented with 10% FBS and 100 U/mL of Penicillin-Streptomycin.
Dendritic cells (DCs) were pulsed with a 10 μg mL^−1 peptide concentration at a cell density of 10^5 cells/mL for 4 hours at 37° C. Following this, the DCs were mixed with autologous CD8+ T cells at a DC:T cell ratio of 1:10. The cell mixture was then aliquoted into an ELISpot plate at 100 μL per well and incubated for 24 hours. The secreted IFN-γ signal was detected using the ELISpot Plus Human IFN-γ (ALP) kit (Mabtech). […]
We utilized ELISpot assay, which quantifies cytokine IFN-γ releasing by CD8^+ T lymphocytes isolated from PBMCs of healthy subjects, to verify the immunogenic potential of candidate peptides. […] We co-cultured pan-DCs loaded with the candidate peptides with autologous CD8′ T cells for 24 hours and assessed the secretion of IFN-γ as an indicator of T-cell activation and immunogenicity.

Row | Sequence | T cell response (IFN-γ secretion) (peptide concentration of 1 ug mL^−1, DC:CD8+ T cell co-culture, 24 hours, healthy donors) | immunogenicity demonstrated in the ELISpot analysis
1 | MCDEDETTA [Actin1-9, peptide derived from human Actin within the amino acid region 1-9, negative control] | negligible response | –
2 | STIHLASQFTK (Description of sequence: non-canonical peptide, associated gene: CRYBG1, classification: CDS (frame-shift), short form name: p9; listed as Homo sapiens) | – | strong immunogenicity
